Measured values: US20120302609A1, “Pyrazolines for the Modulation of PKM2” (Dynamix Pharmaceuticals LTD., priority 2011, published 2012)
Several values for one entry are separate records, joined by “and”; a condition that tells them apart may be missing. Equal values may be shown once.

How the values were obtained:
[1] = tested on: HT-29 cells (a colorectal cancer cell line); assay: Combination with 5-FU on HT-29 cells; type: cell-based, human; details: FIG. 5
[2] = H1299 nude mouse xenograft study, toxicity (body weight, deaths, organ weights); type: in vivo, mice; details: mouse, in vivo, ip; for Deaths NTR: female, nude (nu/nu)
Method: (§1) The animals were fed ad libitum water (reverse osmosis, 1 ppm Cl) and NIH 31 Modified and Irradiated Lab Diet® consisting of 18.0% crude protein, 5.0% crude fat, and 5.0% crude fiber. The mice were housed on irradiated Enrich-o′ Cobs™ Laboratory Animal Bedding in static microisolators on a 12-hour light cycle at 20-22° C. (68-72° F.) and 40-60% humidity.
(§2) Dosing began on D1 in four groups of mice (n=12/group in Groups 1, 3, and 4; n=6 in Group 2). XT26 and its vehicle were administered intraperitoneally (i.p.) twice daily for 28 days (b.i.d.×28), starting with the p.m. dose on D1 and ending with the a.m. dose on D29. Gemcitabine was administered i.p. once daily at three-day intervals for four doses (q3d×4). In all groups, the dosing volume of 10 ml/kg (0.2 ml/20 g mouse) was scaled to the weight of each individual animal, as measured twice weekly.
(§3) Group 1 mice received the XT26 vehicle b.i.d.×28, and served as the controls for the study. Group 2 received gemcitabine at 120 mg/kg. Group 3 was to receive XT26 at 100 mg/kg b.i.d.×28; on D21, four mice (Animals 1, 3, 4, and 5) erroneously received 200 mg/kg XT26 for their a.m. dose. Group 4 was to receive XT26 at 200 mg/kg b.i.d.×28, but dosing stopped on D9 (b.i.d.×8) because of toxicity. Group 4 dosing at 200 mg/kg resumed on D17 on a qd (once daily)×13 dosing schedule. Because of a scheduling error, the D19 dose for Group 4 mice was omitted; qd dosing occurred on Days 17, 18, and 20-28.
Animals were weighed daily on D1-5, then twice weekly until the completion of the study. The mice were observed frequently for overt signs of any adverse, treatment-related side effects.
On D10, both kidneys and the liver were harvested from each euthanized Group 4 animal. Each organ was weighed separately, fixed overnight in 10% neutral buffered formalin, and transferred to 70% ethanol.

[3] = biological target: PKM1 (Homo sapiens, UniProt P14618); assay: Isoform selectivity of pyruvate kinases; type: biochemical
[4] = tested on: H1299 Human Non-Small Cell Lung Carcinoma; assay: H1299 human non-small cell lung carcinoma nude mouse xenograft model, tumor growth delay; type: in vivo, mice
Method: as §1
H1299 (NCI-H1299) NSCLC cells were obtained from the American Type Culture Collection, which reports the cell line to have originated from a lymph node metastasis and to lack p53 expression. The cell line was maintained as exponentially growing cultures in RPMI-1640 medium supplemented with 10% fetal bovine serum, 2 mM glutamine, 100 units/mL penicillin G sodium, 100 μg/mL streptomycin sulfate, 25 μg/mL gentamicin, 10 mM HEPES, and 0.075% sodium bicarbonate. The tumor cells were cultured in tissue culture flasks in a humidified incubator at 37° C., in an atmosphere of 5% CO2 and 95% air.
H1299 tumor cells were harvested during log phase growth and suspended in cold PBS. Each nude mouse was inoculated subcutaneously in the right flank with 0.2 mL of the cell suspension (1×10^7 cells). The tumors were periodically calipered in two dimensions to monitor size as the mean volume approached the desired 90-130 mm^3 range. Tumor size was calculated by the following formula:
where w=width and l=length, in mm, of the tumor. Tumor weight may be estimated with the assumption that 1 mg is equivalent to 1 mm^3 of tumor volume.
Compound 13A (MW 467.51, code-named XT26) was provided as a powder stored at −20° C., and protected from light during storage and handling. Dosing suspensions, in 0.5% carboxymethyl cellulose and 1% Tween® 80 in deionized water (Vehicle), were prepared fresh for each dose, and kept at 4° C. post formulation. Gemcitabine (Gemzar®, Lilly, 38 mg/mL, Lot # A866884A) was stored at room temperature. A fresh 12 mg/mL gemcitabine dosing solution was prepared on each treatment day by diluting an aliquot of the stock solution with saline.
as §2
as §3, with “Group 4 was to receive XT26 at 200 mg/kg b.i.d.×28, but dosing stopped on D9 (b.i.d.×8) because of toxicity.” left out
Tumors were calipered twice weekly for the duration of the study, and each animal was euthanized when its neoplasm reached the predetermined endpoint volume (1200 mm^3) or at the end of the study, whichever came first. Animals that exited the study for tumor growth were documented as euthanized for tumor progression (TP), with the date of euthanasia. The time to endpoint (TTE) for each mouse was calculated by the following equation: […]
where TTE is expressed in days, endpoint volume is expressed in mm^3, b is the intercept, and m is the slope of the line obtained by linear regression of a log-transformed tumor growth data set.

[5] = tested on: 786-O (kidney); assay: Cell proliferation assay (CellTiter-Glo Luminescent); type: cell-based; details: Homo sapiens, 786-0, 1 mM glucose, 96 hr
[6] = Group 1 vs 3: XT26 ip bid × 28, 100 mg/kg
[7] = XT26 200 mg/kg ip bid × 8, then qd
[8] = XT26 200 mg/kg ip bid × 8, then qd on Days 17, 18, 20-28

Sequence of PKM1 (P14618 1-531 isoform P14618-2): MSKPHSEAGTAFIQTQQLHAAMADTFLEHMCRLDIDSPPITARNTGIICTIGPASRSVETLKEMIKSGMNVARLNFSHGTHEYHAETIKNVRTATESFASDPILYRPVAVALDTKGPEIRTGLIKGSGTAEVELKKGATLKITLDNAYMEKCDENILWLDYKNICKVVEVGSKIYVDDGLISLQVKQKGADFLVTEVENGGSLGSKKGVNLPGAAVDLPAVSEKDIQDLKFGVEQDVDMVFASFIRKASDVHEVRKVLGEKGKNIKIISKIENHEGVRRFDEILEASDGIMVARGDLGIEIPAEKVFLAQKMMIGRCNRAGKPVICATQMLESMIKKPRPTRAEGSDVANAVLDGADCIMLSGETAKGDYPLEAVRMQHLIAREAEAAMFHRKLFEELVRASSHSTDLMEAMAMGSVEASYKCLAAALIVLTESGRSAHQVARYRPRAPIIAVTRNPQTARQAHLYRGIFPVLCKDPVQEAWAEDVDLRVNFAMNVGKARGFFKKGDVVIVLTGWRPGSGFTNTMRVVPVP

## CCS(=O)(=O)Nc1ccc(C2=NN(C(C)=O)C(c3ccc(OC)cc3)C2)cc1 (racemic) [Compound 1A, N-(4-(1-acetyl-5-(4-methoxyphenyl)-4,5-dihydro-1H-pyrazol-3-yl)phenyl)ethanesulfonamide]
[1]
  effect in combination with 5-FU: at least additive

## COc1ccc([C@@H]2CC(c3ccc(NS(=O)(=O)c4ccc(F)cc4)cc3)=NN2C(C)=O)cc1 [Compound 13A, (S)—N-(4-(1-acetyl-5-(4-methoxyphenyl)-4,5-dihydro-1H-pyrazol-3-yl)phenyl)-4-fluorobenzenesulfonamide]
[2]; 100 mg/kg, 28 days
  Deaths NTR: 0
[2]; 200 mg/kg
  Deaths NTR: 0
  Mean BW Nadir: −13.6%
[3]
  AC50: Not active
[4]; [6]
  Are the survival curves sig different?: Yes
  Hazard Ratio: 2.315
[4]; Group 1 vs 3: vehicle / XT26 100 mg/kg
  Median survival Ratio: 0.8022
[4]; XT26 100 mg/kg ip bid × 28
  % TGD: 24%
  Regressions CR: 0
  Regressions PR: 0
  Regressions TFS: 0
[4]; XT26 100 mg/kg ip bid × 28, endpoint 1200 mm^3, 28-day study
  Median TTE: 23.2 days
[4]; XT26 100 mg/kg ip bid × 28, median tumor volume of animals not at endpoint (n in brackets), 100 mg/kg
  MTV (n) Day 28: 1080 mm^3 and 1080 (3) mm^3
[4]; XT26 100 mg/kg ip bid × 28, vs Group 1 vehicle
  T − C: 4.5 days
[4]; [7]
  Regressions CR: 0
  Regressions PR: 0
  Regressions TFS: 0
[4]; [8]
  % TGD: 13%
  T − C: 2.5 days
[4]; XT26 200 mg/kg ip bid × 8, then qd on Days 17, 18, 20-28, n = 9
  Median TTE: 21.2 days
[4]; XT26 200 mg/kg ip bid × 8, then qd, animals not at endpoint (n in brackets), 200 mg/kg
  MTV (n) Day 28: 527 mm^3 and 527 (1) mm^3
[4]; XT26 ip bid × 28, 100 mg/kg (Column B = treated group)
  Median survival: 23.25
[4]; discontinuous 200 mg/kg XT26 therapy, five mice remaining after D10
  survival advantage relative to the vehicle treatment: little or no survival advantages
[5]
  AC50: < 3000 nM
